Like-named read-outs stand apart in the source and are kept apart here.
What was measured:
QTcF interval = settings: in vivo
[1] = human, plasma; cited from earlier work
OATP1B1 [2] = settings: cited from earlier work
[3] = human, in vivo
pregnane X receptor = settings: cited from earlier work
OATP1B1 [4] = settings: cited from earlier work; remark: listed apart in the source
[5] = in vivo; cited from earlier work
CYP2D6 = settings: recombinant enzyme; cited from earlier work
CYP3A = settings: recombinant enzyme; cited from earlier work
carboxylesterase 1 = settings: cited from earlier work
[6] = in vivo, cited from earlier work
[7] = human; cited from earlier work
clinical [8] = settings: male, human, in vivo
[9] = monkey, in vivo
CYP2C8 = settings: recombinant enzyme; cited from earlier work
[10] = Sprague-Dawley, rat, in vivo, iv, 10 mg/kg
OATP1B3 = settings: cited from earlier work
P-glycoprotein = settings: cited from earlier work
CES-1, CatA and CYP3A = system: CES-1, CatA and CYP3A; parameters: species or system human
MERS-CoV = settings: rhesus monkey, in vivo; cited from earlier work
cathepsin A = settings: cited from earlier work
[11] = both, human, in vivo
[12] = male, human, in vivo
CYP3A4 = settings: cited from earlier work
[13] = system: aryl hydrocarbon receptor; settings: cited from earlier work
cytochrome P450 (CYP) 3A = settings: cited from earlier work
MATE1 = settings: cited from earlier work
in vivo = settings: rhesus monkey, iv
clinical [14] = settings: both, human, in vivo

CCC(CC)COC(=O)[C@H](C)N[P@](=O)(OC[C@H]1O[C@@](C#N)(c2ccc3c(N)ncnn23)[C@H](O)[C@@H]1O)Oc1ccccc1 [RDV, 2-ethylbutyl N-{(S)-[2-C(4-aminopyrrolo[2,1-f][1,2,4]triazin-7-yl)-2-5-anhydro-d-altrononitril-6-O-yl]phenoxyphosphoryl}-L-alaninate]
upper bound of two-sided 90% CI of predicted mean ΔΔQTcF (QTcF interval; human): < 10 ms | QTcF interval prolongation (QTcF interval): do not cause QTcF interval prolongation | protein binding (bound) [1]: 88–93.6% | substrate for OATP1B1 (OATP1B1 [2]): substrate | graded ALT abnormalities ([3]; both): eight participants with Grade 1 and 1 subject with Grade 2 ALT abnormalities | infusion-site phlebitis, participants ([3]; both): 40% | serious AEs, Grade 3 or 4 AEs, deaths ([3]; both): no serious AEs, Grade 3 or 4 AEs, or deaths | graded ALT abnormalities [3]: no graded alanine aminotransferase (ALT) abnormalities | overall tolerability [3]: generally well tolerated | transient Grade 1 AST abnormalities [3]: four of the nine participants with graded ALT abnormalities | induction of enzymes or transporters via pregnane X receptor (pregnane X receptor): no potential for induction | inhibition of OATP1B1 (OATP1B1 [4]): weak inhibitor | dose recovered in urine as this analyte [5]: 10.3% | metabolism by CYP2D6 (CYP2D6): can be metabolized | metabolism by CYP3A (CYP3A): can be metabolized | contribution to total metabolism (carboxylesterase 1): 80% | accumulation [6]: lack of accumulation | mean whole blood/plasma concentration ratio [7]: 0.76 | clearance (clinical [8]): 1170 mL/min | half-life (clinical [8]; iv, 150 mg): ~1 h | CL renal (clinical [8]; renal clearance CLr): 129 mL/min | administered radioactivity recovered in feces [9]: 25.6% | administered radioactivity recovered in urine [9]: 33.6% | metabolism by CYP2C8 (CYP2C8): can be metabolized | administered radioactivity excreted in feces [10]: 27.8% | administered radioactivity excreted in urine [10]: 63.0% | time within which most of the radioactivity was excreted [10]: ≤ 48 h | inhibition of OATP1B3 (OATP1B3): weak inhibitor | substrate for P-glycoprotein (P-glycoprotein): substrate | extraction ratio (CES-1, CatA and CYP3A): 0.6–0.8 | lung viral loads lower in each lung lobe (MERS-CoV): 2.5–4 logs | lung viral loads versus vehicle-treated animals (MERS-CoV): lower when all lung lobes were combined | prophylactic efficacy versus vehicle-treated animals (MERS-CoV): significant reduction in clinical scores, clinical signs of respiratory disease, and viral RNA levels | contribution to total metabolism (cathepsin A): 10% | median time of occurrence of maximum observed plasma concentration [11]: ~ 0.7 h | blood-to-plasma ratio of [14C]-radioactivity [12]: 0.68 | mean total recovery of the radioactive dose [12]: > 92% | radioactive dose recovered in feces [12]: ~18% | radioactive dose recovered in urine [12]: approximately 74% | inhibition of CYP3A4 (CYP3A4): weak inhibitor | induction of enzymes or transporters via aryl hydrocarbon receptor [13]: no potential for induction | CYP-dependent hepatic metabolism, share of total hepatic clearance (cytochrome P450 (CYP) 3A): 10% | contribution to total metabolism (cytochrome P450 (CYP) 3A): 10% | inhibition of MATE1 (MATE1): weak inhibitor | AUC(0-t) (in vivo): 1430 ng·h/mL | Cmax (in vivo): 3350 ng/mL | AUC (clinical [14]; 100 mg): 1590 ng·h/mL | Cmax (clinical [14]; 100 mg): 2230 ng/mL | Tmax (clinical [14]; 100 mg): 0.68 h | clearance (clinical [14]; 100 mg, CLss, mean (%CV)): ~1080 mL/min | half-life (clinical [14]; 100 mg, t1/2, median (Q1, Q3)): 0.96 h | AUC(0-t) (clinical [14]; 200 mg): 2860 ng·h/mL | Cmax (clinical [14]; 200 mg): 4380 ng/mL | Tmax (clinical [14]; 200 mg): 0.67 h | half-life (clinical [14]; 200 mg, t1/2, median (Q1, Q3)): 0.9 h | AUC (clinical [14]; iv): 1590 ng·h/mL | half-life (clinical [14]; median t1/2): ~1 h

N#C[C@@]1(c2ccc3c(N)ncnn23)O[C@H](CO)[C@@H](O)[C@H]1O [GS-441524]
QTcF interval prolongation (QTcF interval): do not cause QTcF interval prolongation | dose recovered in urine as this analyte [5]: 48.6% | t1/2 ([6]; 150 mg): ~ 24.5 h | dose dependence of PK ([6]; iv): linear pharmacokinetics | accumulation in plasma [6]: approximately 1.9 fold | steady state reached by day [6]: 4 days | steady state reached on day [6]: 4 days | CL renal (clinical [8]; estimated secretory clearance CLr,s): 31 mL/min | Tmax (clinical [8]; iv): 3 h | CL renal (clinical [8]; renal clearance CLr): 151 mL/min | secretory clearance as share of CLr [12]: 21 % of CLr | AUC (clinical [14]; 100 mg): 2230 ng·h/mL | Cmax (clinical [14]; 100 mg): 145 ng/mL | Tmax (clinical [14]; 100 mg): 1.51 h | half-life (clinical [14]; 100 mg, t1/2, median (Q1, Q3)): 27.4 h | AUC(0-t) (clinical [14]; 200 mg): 2190 ng·h/mL | Cmax (clinical [14]; 200 mg): 143 ng/mL | Tmax (clinical [14]; 200 mg): 2 h

— PMC8007387 (Clinical Pharmacokinetics, 2021)
